In ChEMBL document CHEMBL3751807, “Design of High-Affinity Stapled Peptides To Target the Repressor Activator Protein 1 (RAP1)/Telomeric Repeat-Binding Factor 2 (TRF2) Protein-Protein Interaction in the Shelterin Complex” (J Med Chem, 2016):

Assays:
[1] = Solubility of compound in phosphate buffer at 100 uM; assay type: physicochemical
[2] = Solubility of compound in phosphate buffer at 15 uM; assay type: physicochemical
[3] = biological target: T1, Telomeric repeat-binding factor 2-interacting protein 1 (Homo sapiens, UniProt Q9NYB0); assay: Competitive binding to RAP1 (unknown origin) incubated for 1 hr by fluorescence polarization-based binding assay
T1 sequence (Q9NYB0 whole entry): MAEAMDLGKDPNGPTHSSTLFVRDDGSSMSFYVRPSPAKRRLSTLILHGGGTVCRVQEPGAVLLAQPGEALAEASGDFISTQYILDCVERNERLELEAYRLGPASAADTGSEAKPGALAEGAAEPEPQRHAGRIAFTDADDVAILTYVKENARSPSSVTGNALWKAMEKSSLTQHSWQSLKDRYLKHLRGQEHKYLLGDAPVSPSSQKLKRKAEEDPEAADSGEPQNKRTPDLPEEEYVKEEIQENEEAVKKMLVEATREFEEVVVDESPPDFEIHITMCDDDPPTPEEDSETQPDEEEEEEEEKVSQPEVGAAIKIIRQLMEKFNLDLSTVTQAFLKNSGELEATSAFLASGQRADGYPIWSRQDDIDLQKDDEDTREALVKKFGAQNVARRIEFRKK

CC[C@@H](C)[C@H](NC(=O)[C@@H](NC(=O)[C@@H](NC(C)=O)[C@@H](C)O)[C@@H](C)O)C(=O)NCC(=O)N[C@@H](CCSC)C(=O)N[C@@H](CCSC)C(=O)N[C@H](C(=O)N[C@@H](CC(C)C)C(=O)N[C@@H](CCCCN)C(=O)N[C@@H]1CCCCn2cc(nn2)C[C@H](C(=O)N[C@@H](CC(C)C)C(=O)N[C@H](CO)C(N)=O)NC(=O)[C@@H](CCCCN)NC(=O)[C@@H](Cc2ccccc2)NC(=O)[C@H](C)NC1=O)[C@@H](C)O (stereo in doubt)
solubility [1]: soluble

C#CC[C@@H](NC(=O)[C@H](CCCCN)NC(=O)[C@H](Cc1ccccc1)NC(=O)[C@H](C)NC(=O)[C@H](CCCCN=[N+]=[N-])NC(=O)[C@H](CCCCN)NC(=O)[C@H](CC(C)C)NC(=O)[C@@H](NC(=O)[C@H](CCSC)NC(=O)[C@H](CCSC)NC(=O)CNC(=O)[C@@H](NC(=O)[C@@H](NC(=O)[C@@H](NC(C)=O)[C@@H](C)O)[C@@H](C)O)[C@@H](C)CC)[C@@H](C)O)C(=O)N[C@@H](CC(C)C)C(=O)N[C@@H](CO)C(N)=O
solubility [2]: Insoluble

Ac-TTIGMKTLKAAFKT-NH2
IC50 [3]: > 200 µM
